Measured values taken from patent US20060029544A1, “Receptor-binding cyclic peptides and methods of use” (The Regents of the University of California Office of …, priority 2004, published 2006).

How the values were obtained:
Conditions in all cases: 20 μM peptide
[1] = molecular target: T1, α5β1 integrin (Homo sapiens, UniProt P05556+P08648); test: ELISA: soluble α5β1-hFc binding to immobilized 50 kDa fibronectin fragment in the presence of RGD peptides
T1 construct: chimeras comprising the extracellular domain of αvβ3, αvβ5, α5β1, and αIIbβ3 linked to the Fc domain of either mouse IgG; purchased Celltech plc (supplied, no catalogue number)
T1 sequence (P08648 42-995 limits assumed): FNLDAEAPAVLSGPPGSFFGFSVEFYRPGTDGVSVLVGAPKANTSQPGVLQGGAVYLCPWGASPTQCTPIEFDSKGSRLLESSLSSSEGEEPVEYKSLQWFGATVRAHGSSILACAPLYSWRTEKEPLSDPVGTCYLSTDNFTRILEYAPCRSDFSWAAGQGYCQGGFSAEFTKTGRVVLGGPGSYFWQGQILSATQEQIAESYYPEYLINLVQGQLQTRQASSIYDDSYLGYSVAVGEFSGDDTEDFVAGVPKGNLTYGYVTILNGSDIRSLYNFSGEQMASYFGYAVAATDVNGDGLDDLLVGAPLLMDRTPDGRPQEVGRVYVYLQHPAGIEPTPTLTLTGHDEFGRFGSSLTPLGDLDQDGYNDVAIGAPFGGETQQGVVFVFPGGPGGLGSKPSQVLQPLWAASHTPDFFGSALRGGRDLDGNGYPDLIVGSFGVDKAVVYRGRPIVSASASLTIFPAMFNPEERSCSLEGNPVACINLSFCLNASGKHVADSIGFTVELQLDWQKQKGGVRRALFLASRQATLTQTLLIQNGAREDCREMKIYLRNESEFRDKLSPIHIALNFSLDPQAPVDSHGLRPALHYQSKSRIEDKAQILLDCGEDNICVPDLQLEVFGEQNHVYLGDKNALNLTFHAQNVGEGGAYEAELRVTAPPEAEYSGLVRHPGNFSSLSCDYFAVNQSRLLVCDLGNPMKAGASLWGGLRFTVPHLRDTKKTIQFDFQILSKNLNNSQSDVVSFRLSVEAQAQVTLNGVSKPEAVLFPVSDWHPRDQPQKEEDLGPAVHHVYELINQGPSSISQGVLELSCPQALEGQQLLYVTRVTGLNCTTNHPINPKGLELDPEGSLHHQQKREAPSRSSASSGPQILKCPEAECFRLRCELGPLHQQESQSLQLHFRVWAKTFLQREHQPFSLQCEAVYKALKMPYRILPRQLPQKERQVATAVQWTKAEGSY
T1 sequence (P05556 21-728 limits assumed): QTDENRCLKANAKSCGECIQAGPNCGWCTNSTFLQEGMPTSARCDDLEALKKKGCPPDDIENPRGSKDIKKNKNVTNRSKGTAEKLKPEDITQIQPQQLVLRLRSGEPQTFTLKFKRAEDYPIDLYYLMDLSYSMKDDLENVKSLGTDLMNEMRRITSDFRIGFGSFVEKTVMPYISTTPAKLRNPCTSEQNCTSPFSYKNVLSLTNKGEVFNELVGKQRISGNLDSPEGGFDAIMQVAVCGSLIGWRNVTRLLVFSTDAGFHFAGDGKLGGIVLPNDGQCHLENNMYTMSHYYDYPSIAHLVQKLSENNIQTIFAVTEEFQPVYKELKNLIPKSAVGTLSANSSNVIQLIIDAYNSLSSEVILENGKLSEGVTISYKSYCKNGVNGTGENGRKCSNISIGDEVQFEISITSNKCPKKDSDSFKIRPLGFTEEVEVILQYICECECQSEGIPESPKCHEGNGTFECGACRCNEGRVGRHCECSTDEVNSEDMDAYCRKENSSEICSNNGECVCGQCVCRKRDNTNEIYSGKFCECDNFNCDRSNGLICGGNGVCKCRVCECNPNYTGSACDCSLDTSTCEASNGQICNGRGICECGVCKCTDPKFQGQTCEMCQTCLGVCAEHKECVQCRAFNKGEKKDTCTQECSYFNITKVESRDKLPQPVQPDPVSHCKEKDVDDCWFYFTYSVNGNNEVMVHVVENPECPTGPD
Excerpt: Four different soluble integrins were supplied by Celltech plc. Soluble forms of αvβ3, αvβ5, α5β1, and αIIbβ3 integrin were generated by constructing chimeras comprising the extracellular domain of αvβ3, αvβ5, α5β1, and αIIbβ3 linked to the Fc domain of either mouse IgG (αvβ3-mFc, αvβ5-mFc, and αIIbβ3-mFc) or human IgG (α5β1-hFc) as described by Stephens et al., Cell Adhes. Commun., 7:377-390 (2000) and Coe et al., J. Biol. Chem., 276:35854-35866 (2001). Since the four soluble integrin chimeras were supplied either as purified proteins (αvβ3-mFc and α5β1-hFc) or as unpurified hybridoma supernatants (αIIbβ3-mFc and αvβ5-mFc), it was necessary to use two types of ELISAs. […] In one type of ELISA (FIGS. 2A and 2B), the immobilized component is a 50 kDa fragment of fibronectin. In the second type of ELISA (FIGS. 2C and 2D), the immobilized component is a goat anti-mFc antibody that is used to capture chimeric proteins so that the RGD binding site of the integrin is maximally exposed. Each three-sided box in FIG. 2 represents a single well of a 96-well plate, and the components are listed in the sequence of their addition to the assay. The immobilized component at the bottom of the well is bound to the well by electrostatic interactions.
To analyze the affinity and selectively of RGD peptides for αvβ3 and α5β1, 96-well ELISA plates were coated with 100 μl of a 5 μg/ml of the 50 kDa fragment of fibronectin in PBS per well and left overnight at 4° C. The plates were washed with PBS using a Denley Wellwash 4 Mk 2. Washing was repeated twice with a 400 μl wash per well. 200 μ/well of blocking buffer (i.e., to prevent non-specific binding of proteins) was then added for 1 hour followed by a repeat washing with PBS. RGD peptides were then added at a maximum concentration of 200 μM and a preliminary screen was performed at three concentrations, 200,20, and 2 μM. 100 μl of an RGD peptide was added to each well and each assay was performed in triplicate. Purified soluble αvβ3-mFc or purified α5β1-hFc was diluted to 2 μg/ml and 15 ng/ml, respectively, in conjugate buffer and 100 μl was added to each well. The plates were incubated for 2 hours with shaking using a Luckham R100 Rotatest at approximately 150 rpm. After incubation, the plates were washed with PBS as previously described and a labeled antibody was added. For the αvβ3 assay, a horseradish peroxidase (HRP)-labeled F(ab′)2 fragment of goat anti-mouse IgG Fc was diluted 1:2000 in conjugate buffer and 100 μl was added to each well. For the α5β1 assay, an HRP-labeled F(ab′)2 fragment of goat anti-human IgG Fc was diluted 1:2000 in conjugate buffer and 100 μl was added to each well. Plates were incubated for 30 minutes with shaking followed by 2 washes with PBS. 100 μl of TMB substrate was added to each well and plates were shaken during a 10 minute color development. Plates were read using a plate spectrophotometer at 630 nm.
Two negative and two positive controls were used in both types of ELISAs. For example, the negative controls were wells that contained 50 μl of an active control peptide, integrin, and biotinylated ligand or 50 μl of the active control peptide and 50 μl of buffer. These negative control wells typically develop little to no color. […] These wells typically develop the maximum amount of color.
FIGS. 3-6 illustrate the percent binding of the vitronectin, fibronectin, or fibrinogen ligand to αvβ5, α5β1, αIIbβ3, or αvβ3 integrin in the presence of RGD peptides (i.e., linear (A), cyclic (B), or 4-[^19F]-fluorobenzoyl cyclic (C)) at different concentrations, with 100% maximum signal being the signal obtained in the absence of the peptide.

[2] = tested on: VUP melanoma cell line; test: Adhesion assay: [51Cr]-VUP cells to vitronectin; assay type: cell-based
Protocol: (§1) RGD peptides were plated at a maximum concentration of 200 μM and a minimum concentration of 2 nM. For each RGD peptide sequence, linear peptides (A), cyclic peptides (B), and 4-[^19F]-fluorobenzoyl cyclic peptides (C) were assayed. Each RGD peptide concentration was performed in quadruplicate and each experiment was repeated twice.
(§2) Plastic 96-well plates (Falcon 3912; Becton Dickinson) were coated with 50 μl substrate (10 μg/ml laminin or 5 μg/ml vitronectin). The plates were incubated at 37° C. in an 8% CO2 atmosphere for 1 hour. Unbound protein was flicked off and the plates were washed with phosphate buffered saline (PBS) and blocked with bovine serum albumin (0.1% w/v BSA)/PBS/0.1% sodium azide) for 1 hour. The plates were then washed with PBS, placed on a bed of ice and 25 μl of peptide was added to the wells.
(§3) Sodium [^51Cr] chromate was purchased from Amersham International, UK. […]
(§4) 25 μl (about 10,000 cells) were added to each quadruplicate well and the plates incubated at 37° C. in an 8% CO2 atmosphere for 1 hour. […] The radioactivity associated with each well was determined in a gamma counter (1261 Multigamma; Wallac, Sweden). Quadruplicate 25 μl samples of labeled cells were counted as 100% input values. To determine non-specific binding, the ability of cells to bind BSA-coated wells was also assessed. […]
(§5) The results were calculated as follows: [formula] […]

[3] = tested on: A375M melanoma cell line; test: Adhesion assay: [51Cr]-A375M cells to vitronectin; assay type: cell-based, human
Protocol: as §1, §2, §3, §4, §5

## RGDY(OMe)K [B7]
[1]
  fibronectin binding to α5β1, % of the maximum signal: 48.4%
[2]
  adhesion of [51Cr]-VUP cells to vitronectin, normalized to absence of peptide (100%): 44.16%±1.71%
[3]
  adhesion of [51Cr]-A375M cells to vitronectin, normalized to absence of peptide (100%): 72.79%±0.04%
